The results in this text go back to the NIST ThermoML archive (doi:10.1021/acs.jced.8b01053).

Numbers after ± are expanded uncertainties.

For this data set the following is noted: Liquid, Ebulliometric method (Recirculating still).

As for `CC(=O)OCCC(C)C` [3-methylbutyl ethanoate], the “vapor or sublimation pressure” value is, setting by setting: (391.07 K) 50 ± 1 kPa; (413.46 K) 100 ± 1 kPa.
For `CCOC(C)=O` [ethyl acetate], the “vapor or sublimation pressure” value (330.01 K) was 50 ± 1 kPa and the “vapor or sublimation pressure” value (349.53 K) was 100 ± 1 kPa.

The vapor or sublimation pressure is the pressure of vapour in equilibrium with the condensed phase.
